From ChEMBL document CHEMBL3751788, “The new facile and straightforward method for the synthesis of 4H-1,2,3-thiadiazolo[5,4-b]indoles and determination of their antiproliferative activity” (Eur J Med Chem, 2016)
Calls of active or inactive are those of the source. The rule behind the calls is not given here.

Key:
HT-29 [1] = test: Antiproliferative activity against human HT-29 cells after 96 hrs by MTT assay; format: functional, cell-based; settings: HT-29, 96 h
Jurkat [2] = test: Induction of apoptosis in human Jurkat cells after 48 hrs at 50 uM by annexin-V-FITC/PI staining based flow cytometry; format: functional, cell-based
Mus musculus = organism: Mus musculus; test: Induction of apoptosis in C57BL/6 mouse liver mitochondrial assessed as cytochrome c release after 1 hr by immunoblotting method; format: functional; settings: Mitochondria
Jurkat [3] = test: Induction of reactive oxygen species in human Jurkat cells at >= 50 uM after 48 hrs by flow cytometry analysis; format: functional, cell-based
HepG2 = test: Antiproliferative activity against human HepG2 cells after 48 hrs by MTT assay; format: functional, cell-based; settings: HepG2, 48 h
Jurkat [4] = test: Induction of apoptosis in human Jurkat cells assessed as increase in cleaved PARP-1 level at 50 and 100 uM after 48 hrs by immunoblotting; format: functional, cell-based
K562 [5] = test: Induction of reactive oxygen species in human K562 cells at >= 50 uM after 48 hrs by flow cytometry analysis; format: functional, cell-based
HT-29 [6] = test: Antiproliferative activity against human HT-29 cells after 72 hrs by MTT assay; format: functional, cell-based; settings: HT-29, 72 h
K562 [7] = test: Induction of apoptosis in human K562 cells after 48 hrs at 50 uM by annexin-V-FITC/PI staining based flow cytometry; format: functional, cell-based
Jurkat [8] = test: Induction of reactive oxygen species in human Jurkat cells after 48 hrs by flow cytometry analysis; format: functional, cell-based
MCF7 = test: Antiproliferative activity against human MCF7 cells after 48 hrs by MTT assay; format: functional, cell-based; settings: MCF7, 48 h
Jurkat [9] = test: Induction of apoptosis in human Jurkat cells assessed as early apoptotic cells at 10 uM after 48 hrs by annexin-V-FITC/PI staining based flow cytometry; format: functional, cell-based
HEK293 [10] = test: Antiproliferative activity against human HEK293 cells incubated with 2000 cells per well after 48 hrs by MTT assay; format: cell-based; settings: HEK293, 48 h
Jurkat [11] = test: Induction of apoptosis in human Jurkat cells assessed as increase in cleaved PARP-1 level at 20 uM after 48 hrs by immunoblotting; format: functional, cell-based
K562 [12] = test: Induction of reactive oxygen species in human K562 cells after 48 hrs by flow cytometry analysis; format: functional, cell-based
HEK293 [13] = test: Antiproliferative activity against human HEK293 cells incubated with 3000 cells per well after 48 hrs by MTT assay; format: cell-based; settings: HEK293, 48 h
K562 [14] = test: Induction of apoptosis in human K562 cells assessed as early apoptotic cells at 10 uM after 48 hrs by annexin-V-FITC/PI staining based flow cytometry; format: functional, cell-based
K562 [15] = test: Induction of apoptosis in human K562 cells assessed as late apoptotic cells at 25 uM after 48 hrs by annexin-V-FITC/PI staining based flow cytometry; format: functional, cell-based
Jurkat [16] = test: Induction of apoptosis in human Jurkat cells assessed as late apoptotic cells at 25 uM after 48 hrs by annexin-V-FITC/PI staining based flow cytometry; format: functional, cell-based
K562 [17] = test: Induction of apoptosis in human K562 cells assessed as early apoptotic cells at 25 uM after 48 hrs by annexin-V-FITC/PI staining based flow cytometry; format: functional, cell-based
Jurkat [18] = test: Induction of apoptosis in human Jurkat cells assessed as early apoptotic cells at 25 uM after 48 hrs by annexin-V-FITC/PI staining based flow cytometry; format: functional, cell-based

EC50 (HT-29 [1]) [µM]	EC50 (HT-29 [6]) [µM]	EC50 (MCF7) [µM]	SMILES	Activity (Mus musculus)	Activity (Jurkat [8])	EC50 (HEK293 [10]) [µM]	Activity (K562 [12])	also measured
52.3	49.4	–	O=C(c1ccc(Cl)cc1)n1c2ccccc2c2nnsc21	inactive	–	–	–	Activity (Jurkat [2]): Active; Activity (Jurkat [3]): Active; EC50 (HepG2): 60.2 µM; Activity (Jurkat [4]): Active; Activity (K562 [5]): Active; Activity (K562 [7]): Active
6.97	7.97	12.9	COc1ccc(S(=O)(=O)n2c3ccccc3c3nnsc32)cc1	inactive	Dose-dependent effect	15.3	Dose-dependent effect	Activity (Jurkat [9]): Active; Activity (Jurkat [11]): Active; EC50 (HEK293 [13]): 12.3 µM; Activity (K562 [14]): Active
33.8	26.2	31.2	Clc1ccc2[nH]c3snnc3c2c1	–	Dose-dependent effect	24.4	Dose-dependent effect	Activity (K562 [15]): Active; Activity (Jurkat [16]): Active; Activity (K562 [17]): Active; Activity (Jurkat [18]): Active
